Test results: patent publication US7888386B2, “3-(phenoxyphenylmethyl)pyrrolidine compounds” (Theravance, Inc., priority 2008, dated 2011)

Key:
[1] = biological target: T1, hNET (Homo sapiens, UniProt P23975); assay: hNET binding assay (Assay 1); details: hNET binding; read-out: NET pKi (converted)
T1 construct: expressed in transfected cells; host or cells: HEK-293 derived cell line, stably transfected; membrane preparation
Protocol: (§1) Membrane radioligand binding assays were used to measure competitive inhibition of labeled ligand (^3H-citalopram or ^3H-nisoxetine or ^3H-WIN35428) binding to membranes prepared from cells expressing the respective human recombinant transporter (hSERT or hNET or hDAT) in order to determine the pKi values of test compounds at the transporters.
(§2) Recombinant human embryonic kidney (HEK-293) derived cell lines stably transfected with hSERT or hNET, respectively, were grown in DMEM medium supplemented with 10% dialyzed FBS (for hSERT) or FBS (for hNET), 100 μg/ml penicillin, 100 μg/ml streptomycin, 2 mM L-glutamine and 250 μg/ml of the aminoglycoside antibiotic G418, in a 5% CO2 humidified incubator at 37° C. When cultures reached 80% confluence, the cells were washed thoroughly in PBS (without Ca^2+ and Mg^2+) and lifted with 5 mM EDTA in PBS. Cells were pelleted by centrifugation, resuspended in lysis buffer (10 mM Tris-HCl, pH 7.5 containing 1 mM EDTA), homogenized, pelleted by centrifugation, then resuspended in 50 mM Tris-HCl, pH 7.5 and 10% sucrose at 4° C. Protein concentration of the membrane suspension was determined using a Bio-Rad Bradford Protein Assay kit. Membranes were snap frozen and stored at −80° C. Chinese hamster ovary membranes expressing hDAT (CHO-DAT) were purchased from PerkinElmer and stored at −80° C.
(§3) Stock solutions (10 mM in DMSO) of test compound were prepared and serial dilutions made using Dilution Buffer (50 mM Tris-HCl, 120 mM NaCl, 5 mM KCl, pH 7.4, 0.1% BSA, 400 μM ascorbic acid).
(§4) Following a 60 minute incubation at 22° C. (or a period sufficient to reach equilibrium), the membranes were harvested by rapid filtration over a 96-well UniFilter GF/B plate, pretreated with 0.3% polyethyleneimine, and washed 6 times with 300 μl wash buffer (50 mM Tris-HCl, 0.9% NaCl, pH 7.5 at 4° C.). Plates were dried overnight at room temperature, ˜45 μl of MicroScint™-20 (Perkin Elmer) added and bound radioactivity quantitated via liquid scintillation spectroscopy. Competitive inhibition curves and saturation isotherms were analyzed using GraphPad Prism Software package (GraphPad Software, Inc., San Diego, Calif.). IC50 values were generated from concentration response curves using the Sigmoidal Dose Response (variable slope) algorithm in Prism GraphPad.

[2] = biological target: T2, hSERT (Homo sapiens, UniProt P31645); assay: hSERT binding assay (Assay 1); details: ratio of SERT Ki to NET Ki (binding)
T2 construct: expressed in transfected cells; host or cells: HEK-293 derived cell line, stably transfected; membrane preparation
Protocol: as §1, §2, §3, §4

T1 sequence (P23975 whole entry): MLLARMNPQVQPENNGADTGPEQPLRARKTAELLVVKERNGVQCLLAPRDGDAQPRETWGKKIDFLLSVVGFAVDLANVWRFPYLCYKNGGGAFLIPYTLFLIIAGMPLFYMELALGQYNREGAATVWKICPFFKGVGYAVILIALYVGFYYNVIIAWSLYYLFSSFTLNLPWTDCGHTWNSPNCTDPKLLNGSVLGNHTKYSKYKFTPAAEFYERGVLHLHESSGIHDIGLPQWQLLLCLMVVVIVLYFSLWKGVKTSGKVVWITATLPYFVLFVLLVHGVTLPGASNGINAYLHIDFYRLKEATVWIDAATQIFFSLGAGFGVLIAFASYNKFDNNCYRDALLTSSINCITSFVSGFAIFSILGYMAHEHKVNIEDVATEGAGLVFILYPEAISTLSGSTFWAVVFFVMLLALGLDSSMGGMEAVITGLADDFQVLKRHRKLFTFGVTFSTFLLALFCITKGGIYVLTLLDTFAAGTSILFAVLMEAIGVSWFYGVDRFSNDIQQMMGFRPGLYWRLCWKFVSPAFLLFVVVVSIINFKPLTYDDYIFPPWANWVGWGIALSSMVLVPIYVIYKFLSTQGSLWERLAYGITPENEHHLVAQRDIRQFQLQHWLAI
T2 sequence (P31645 whole entry): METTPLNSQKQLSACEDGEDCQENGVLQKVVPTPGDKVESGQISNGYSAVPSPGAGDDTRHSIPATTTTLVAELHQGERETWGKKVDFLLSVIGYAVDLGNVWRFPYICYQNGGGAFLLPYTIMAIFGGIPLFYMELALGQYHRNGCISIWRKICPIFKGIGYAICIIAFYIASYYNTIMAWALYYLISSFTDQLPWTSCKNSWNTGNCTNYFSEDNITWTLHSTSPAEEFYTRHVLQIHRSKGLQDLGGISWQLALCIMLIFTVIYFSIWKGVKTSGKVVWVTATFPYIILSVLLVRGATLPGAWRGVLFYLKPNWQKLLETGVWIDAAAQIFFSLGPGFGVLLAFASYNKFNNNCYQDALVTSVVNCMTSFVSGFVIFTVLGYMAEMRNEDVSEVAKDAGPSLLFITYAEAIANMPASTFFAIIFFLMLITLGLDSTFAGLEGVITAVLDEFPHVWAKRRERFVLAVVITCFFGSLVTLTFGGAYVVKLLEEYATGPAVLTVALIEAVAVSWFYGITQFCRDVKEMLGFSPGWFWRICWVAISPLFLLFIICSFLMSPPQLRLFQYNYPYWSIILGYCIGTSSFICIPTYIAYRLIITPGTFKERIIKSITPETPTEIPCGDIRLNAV

With `Cc1cc(F)cc(C(Oc2cc(Cl)cc(Cl)c2)C2CCNC2)c1` (centres unmarked) [35-19] the Ki [1] was 6.31 nM and the “SERT Ki/NET Ki” value [2] was 0.4.

For `Fc1ccc(O[C@@H](c2ccccc2)[C@H]2CCNC2)c(F)c1F` [36-1], the Ki [1] was 6.31 nM and the “SERT Ki/NET Ki” value [2] was 0.8.

For `Fc1c(Cl)ccc(O[C@@H](c2ccccc2)[C@H]2CCNC2)c1F` [36-3], the Ki [1] was 6.31 nM and the “SERT Ki/NET Ki” value [2] was 0.1.

For `Cc1ccc(OC(c2ccccc2)C2CCNC2)c(F)c1F` (centres unmarked) [36-5], the Ki [1] was 1.26 nM and the “SERT Ki/NET Ki” value [2] was 0.5.

`Cc1c(F)ccc(OC(c2ccccc2)C2CCNC2)c1F` (centres unmarked) [36-7] was tested, and the Ki [1] was 5.01 nM and the “SERT Ki/NET Ki” value [2] was 0.3.

`Fc1c(Cl)ccc(OC(c2ccccc2)C2CCNC2)c1Cl` (centres unmarked) [36-10] was tested, and the Ki [1] was 3.16 nM and the “SERT Ki/NET Ki” value [2] was 0.1.

In the case of `Fc1cc(F)cc(C(Oc2ccc(F)c(F)c2F)C2CCNC2)c1` (centres unmarked) [37-1], the Ki [1] is reported as 5.01 nM and the “SERT Ki/NET Ki” value [2] is reported as 4.

In the case of `Fc1cc(F)c(F)c(O[C@H](c2ccccc2)[C@@H]2CCNC2)c1` [38-1], the Ki [1] is reported as 5.01 nM and the “SERT Ki/NET Ki” value [2] is reported as 0.2.

`Fc1cc(F)c(F)c(OC(c2ccccc2)C2CCNC2)c1` (centres unmarked) [38-2] was tested, and the Ki [1] was 1.58 nM and the “SERT Ki/NET Ki” value [2] was 10.

For `Fc1cc(F)c(F)c(OC(c2ccccc2Cl)C2CCNC2)c1` (centres unmarked) [39-2], the Ki [1] was 6.31 nM and the “SERT Ki/NET Ki” value [2] was 0.6.

With `Fc1cc(F)cc(C(Oc2cc(F)cc(F)c2F)C2CCNC2)c1` (centres unmarked) [39-3] the Ki [1] was 6.31 nM and the “SERT Ki/NET Ki” value [2] was 0.4.

`Fc1cc(F)cc(C(Oc2cc(Cl)cc(Cl)c2Cl)C2CCNC2)c1` (centres unmarked) [39-5] was tested, and the Ki [1] was 3.16 nM and the “SERT Ki/NET Ki” value [2] was 0.2.

With `COc1ccc(F)c(OC(c2ccccc2)C2CCNC2)c1F` (centres unmarked) [40-4] the Ki [1] was 0.631 nM and the “SERT Ki/NET Ki” value [2] was 6.3.

With `COc1ccc(F)c(F)c1O[C@H](c1ccccc1)[C@@H]1CCNC1` [40-8] the Ki [1] was 1 nM and the “SERT Ki/NET Ki” value [2] was 1.

`Fc1ccc(Cl)c(Cl)c1OC(c1ccccc1)C1CCNC1` (centres unmarked) [40-12] was tested, and the Ki [1] was 0.251 nM and the “SERT Ki/NET Ki” value [2] was 1.3.

In the case of `Fc1ccc(Cl)c(Cl)c1OC(c1ccccc1)C1CCNC1` (centres unmarked) [40-13], the Ki [1] is reported as 0.2 nM and the “SERT Ki/NET Ki” value [2] is reported as 0.3.

In the case of `Fc1ccc(Cl)c(F)c1OC(c1ccccc1)C1CCNC1` (centres unmarked) [40-14], the Ki [1] is reported as 0.501 nM and the “SERT Ki/NET Ki” value [2] is reported as 0.4.

With `Fc1ccc(Cl)c(F)c1OC(c1ccccc1)C1CCNC1` (centres unmarked) [40-15] the Ki [1] was 0.251 nM and the “SERT Ki/NET Ki” value [2] was 1.3.

For `Fc1ccc(Cl)c(F)c1O[C@@H](c1ccccc1)[C@H]1CCNC1` [40-16], the Ki [1] was 0.158 nM and the “SERT Ki/NET Ki” value [2] was 10.

`COc1ccc(F)c(Cl)c1O[C@@H](c1ccccc1)[C@H]1CCNC1` [40-22] was tested, and the Ki [1] was 0.631 nM and the “SERT Ki/NET Ki” value [2] was 13.

In the case of `COc1ccc(F)c(Cl)c1OC(c1ccccc1)C1CCNC1` (centres unmarked) [40-23], the Ki [1] is reported as 3.16 nM and the “SERT Ki/NET Ki” value [2] is reported as 0.1.

With `Cc1ccc(F)c(O[C@H](c2ccccc2)[C@@H]2CCNC2)c1F` [40-24] the Ki [1] was 1.58 nM and the “SERT Ki/NET Ki” value [2] was 0.4.

With `Cc1ccc(F)c(OC(c2ccccc2)C2CCNC2)c1F` (centres unmarked) [40-25] the Ki [1] was 0.501 nM and the “SERT Ki/NET Ki” value [2] was 2.

For `Cc1ccc(F)c(O[C@@H](c2ccccc2)[C@H]2CCNC2)c1F` [40-26], the Ki [1] was 0.251 nM and the “SERT Ki/NET Ki” value [2] was 20.

With `Cc1ccc(Cl)c(OC(c2ccccc2)C2CCNC2)c1F` (centres unmarked) [40-27] the Ki [1] was 0.251 nM and the “SERT Ki/NET Ki” value [2] was 5.

With `Cc1ccc(Cl)c(O[C@H](c2ccccc2)[C@@H]2CCNC2)c1F` [40-28] the Ki [1] was 0.794 nM and the “SERT Ki/NET Ki” value [2] was 0.4.

With `Cc1ccc(F)c(O[C@H](c2ccccc2)[C@@H]2CCNC2)c1Cl` [40-29] the Ki [1] was 0.2 nM and the “SERT Ki/NET Ki” value [2] was 0.4.

With `Cc1ccc(F)c(O[C@@H](c2ccccc2)[C@@H]2CCNC2)c1Cl` [40-30] the Ki [1] was 5.01 nM and the “SERT Ki/NET Ki” value [2] was 0.1.

In the case of `COc1ccc(F)c(OC(c2ccccc2)C2CCNC2)c1Cl` (centres unmarked) [40-35], the Ki [1] is reported as 0.398 nM and the “SERT Ki/NET Ki” value [2] is reported as 0.3.

For `Fc1cc(F)cc([C@H](Oc2c(F)ccc(F)c2F)[C@H]2CCNC2)c1` [41-1], the Ki [1] was 0.251 nM and the “SERT Ki/NET Ki” value [2] was 100.

For `Fc1cc(F)cc(C(Oc2c(F)ccc(F)c2F)C2CCNC2)c1` (centres unmarked) [41-2], the Ki [1] was 2.51 nM and the “SERT Ki/NET Ki” value [2] was 1.

`COc1ccc(F)c(F)c1OC(c1cc(F)cc(F)c1)C1CCNC1` (centres unmarked) [41-4] was tested, and the Ki [1] was 1 nM and the “SERT Ki/NET Ki” value [2] was 1.

With `Fc1cc(F)cc(C(Oc2c(F)ccc(Cl)c2F)C2CCNC2)c1` (centres unmarked) [41-5] the Ki [1] was 0.2 nM and the “SERT Ki/NET Ki” value [2] was 50.

`Fc1cc(F)cc(C(Oc2c(F)ccc(Cl)c2F)C2CCNC2)c1` (centres unmarked) [41-6] was tested, and the Ki [1] was 0.501 nM and the “SERT Ki/NET Ki” value [2] was 1.
